ChEMBL document CHEMBL1129260, “Evaluation of the stability and animal biodistribution of gadolinium (III) benzylamine-derivatized diethylenetriaminepentaacetic acid” (J Med Chem, 1996)

Test: Gadolinium(III) stability constants (log K value) for the compound polyamino carboxylate derivative

| Structure (SMILES) | log K Gd(III) stability constant |
| --- | --- |
| CCCOC(=O)CN(CCN(CCN(CC(=O)O)CC(=O)O)CC(=O)O)CC(=O)O | 18.9 |
| CCCNC(=O)CN(CCN(CCN(CC(=O)O)CC(=O)O)CC(=O)O)CC(=O)O | 19.7 |
| O=C(O)CN(CCN(CC(=O)O)CC(=O)O)CCN(CC(=O)O)C(COCc1ccccc1)C(=O)O (stereo not given) | 22.6 |

More lines, now with the values ahead:

| log K Gd(III) stability constant | Structure (SMILES) |
| --- | --- |
| 22.4 | O=C(O)CN(CCN(CC(=O)O)CC(=O)O)CCN(CC(=O)O)CC(=O)O [PENTETIC ACID] |
| 17.8 | CCN(CCN(CC(=O)O)CC(=O)O)CCN(CC(=O)O)CC(=O)O |
